36 molecules from the supplement of paper PMC7801607 can be followed below.

Where only a bound is given, the exact number is not on record here.

The test deals with Plasmodium falciparum Dd2 asexual blood stage.

For `COc1ccc2c(c1)cc(CNC(=O)c1cc3ccccc3o1)n2CC(=O)O`, the half-inhibitory concentration (IC50) was more than 5 µM.
Then `O=C(O)c1ccccc1Sc1ncnc2sc3c(c12)CCC3`, with more than 5 µM.
Then `CC(C)(C)c1cc(CCC(=O)N2CCC2)cc(C(C)(C)C)c1O`, with more than 5 µM; and `C[C@H]1COc2c(N3CCN(C)CC3)c(F)cc3c(=O)c(C(=O)O)cn1c23`, with more than 5 µM.
Take `Nc1nc(O)c2ncn(COCCO)c2n1`: the concentration for half-maximal inhibition (IC50) was more than 5 µM.
The molecule `O=C(O)[C@H]1C2CCC(CC2)[C@@H]1Nc1nc(-c2c[nH]c3ncc(F)cc23)ncc1F` returned an IC50 of more than 5 µM.
Then `Oc1ccc(NCc2ccccc2OCc2ccccc2)cc1`, with more than 5 µM; and `O=c1cc(Nc2ccc3ccccc3c2)[nH]c(=O)[nH]1`, with more than 5 µM; and `O=C(NCc1ccc2c3c(cccc13)C(=O)N2)c1cccs1`, with more than 5 µM.
Then `CSc1ccc2c(c1)C(N1CCN(C)CC1)Cc1ccccc1S2` (stereo unspecified), with more than 5 µM; and `CCCCSc1nc(N)c2[nH]c(=O)c(=O)n(Cc3ccccc3)c2n1`, with more than 5 µM.
Then `CN1c2ccc(Cl)cc2N(c2ccccc2)C(=O)c2cn(Cc3ccc(CN4CCOCC4)cc3)nc21`, with more than 5 µM; and `CCc1cc(CCC(=O)Nc2ccccc2O)c(=O)[nH]c1C`, with more than 5 µM.
In the case of `CNc1nc(=O)[nH]cc1F`, the IC50 is more than 5 µM.
Then `CC(C)CCN1C(=O)C(C2=NS(=O)(=O)c3cc(NS(C)(=O)=O)ccc3N2)=C(O)[C@@H]2[C@H]3CC[C@H](C3)[C@@H]21`, with more than 5 µM; and `Cc1cc(NS(=O)(=O)c2ccc(-c3ccc(F)cc3F)cc2)no1`, with more than 5 µM.
Then `O=C(Nc1ncc(Cc2cccc3ccccc23)s1)C1CCCCC1`, with more than 5 µM; and `Cc1cc(C)n(O)c(=O)c1`, with more than 5 µM.
Then `O=C(Nc1ccc(-c2ccccc2)cc1)C1=C(O)C(Cc2ccccc2)OC1=O` (stereo unspecified), with more than 5 µM; and `CN(C)c1[nH]c(=O)ncc1F`, with more than 5 µM.
With `Nc1nc2c(ncn2/C=C2/CC2(CO)CO)c(=O)[nH]1`, the IC50 is more than 5 µM.
On to `Cc1onc(-c2ccccc2Cl)c1C(=O)N[C@@H]1C(=O)N2[C@@H]1SC(C)(C)[C@@H]2C(=O)O`, for which the concentration for half-maximal inhibition (IC50) was more than 5 µM.
Then `O=C(CCCC(F)(F)F)N1CCC(c2nc(-c3nccs3)no2)CC1`, with more than 5 µM; and `O=C(NC(=O)N1CCCc2ccccc21)c1cccc(Cl)c1`, with more than 5 µM; and `Nc1nnnn1CCOc1c2[nH]c3ccc(Cl)cc3c2cc2c1[nH]c1ccc(Cl)cc12`, with more than 5 µM.
`CCc1ccccc1OCCN1CCCCCC1` yielded a half-maximal inhibitory concentration (IC50) of more than 5 µM.
Then `CCCCCCCCCN1C[C@@H](O)[C@H](O)[C@@H](O)[C@@H]1CO`, with more than 5 µM.
In turn, `Cc1c(CN(C)C(=O)/C=C/c2cnc3c(c2)C(C)(C)C(=O)N3)oc2ccccc12` displayed a half-inhibitory concentration (IC50) of more than 5 µM.
Then `CC[C@@H]1C(=O)OC[C@@H]1Cc1cncn1C`, with more than 5 µM.
Then `Cc1c(F)cccc1NC(=O)Nc1ccc(Cl)c(S(=O)(=O)[C@H]2CCCNC2)c1O`, with more than 5 µM; and `COC(=O)Nc1nc2c(C)cccc2[nH]1`, with more than 5 µM.
Then `CCNC(=O)Nc1cc2c(-c3ccnc(C)c3)ccc(CNC(=O)OC)c2cn1`, with more than 5 µM; and `O=P(O)(O)C(CCCc1cccc(Oc2ccccc2)c1)S(=O)(=O)O` (stereo unspecified), with more than 5 µM.
Consider `CCOC(=O)/C=C/[C@H](C[C@@H]1CCNC1=O)NC(=O)[C@H](CC)n1cccc(NC(=O)c2cc(C)on2)c1=O`, for which the 50% inhibitory concentration (IC50) is more than 5 µM.
Then `CC(C)C(=O)N[C@H]1[C@H]([C@H](O)[C@H](O)CO)OC(C(=O)O)=C[C@@H]1N=[N+]=[N-]`, with more than 5 µM; and `CNC(=O)C1O[C@@H](n2cnc3c(NCc4cccc(I)c4)nc(Cl)nc32)[C@H](O)[C@@H]1O` (stereo partly specified), with more than 5 µM.
